Here are results for 1 cell line from the supplement of paper PMC10307832.

Assay in all cases: relative viability (nuclei count vs DMSO), 5 days (fraction); higher = more cells survive
Compound in assay [1]: COc1cc2c(Oc3ccc4[nH]c(C)cc4c3F)ncnc2cc1OCCCN1CCCC1 [Cediranib] + CC1(C)CCC(c2ccc(Cl)cc2)=C(CN2CCN(c3ccc(C(=O)NS(=O)(=O)c4ccc(N[C@H](CCN5CCOCC5)CSc5ccccc5)c(S(=O)(=O)C(F)(F)F)c4)cc3)CC2)C1 [Navitoclax] (partner 0.5 µM)
A digest of the protocol:
(§1)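 Lung cancer cell lines in 1536-well plates got either a single drug or a fixed anchor-drug dose together with five library-drug doses (not always all listed) in √10 steps, by pin tool, on the day after seeding. Nuclei were counted after 5 days, and relative viability is the treated-to-vehicle ratio of nuclei counts. Values are medians of duplicate plates.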

Compound in assay [2]: COc1cc2c(Oc3ccc4[nH]c(C)cc4c3F)ncnc2cc1OCCCN1CCCC1 [Cediranib] + CCNC(=O)c1noc(-c2cc(C(C)C)c(O)cc2O)c1-c1ccc(CN2CCOCC2)cc1 [Luminespib] (partner 0.01 µM)
The essentials: as §1

Compound in assay [3]: COc1cc2c(Oc3ccc4[nH]c(C)cc4c3F)ncnc2cc1OCCCN1CCCC1 [Cediranib] + Cc1nc(Nc2ncc(C(=O)Nc3c(C)cccc3Cl)s2)cc(N2CCN(CCO)CC2)n1 [Dasatinib] (partner 0.075 µM)
The essentials:
as §1

Compound in assay [4]: Nc1ncn([C@H]2C[C@H](O)[C@@H](CO)O2)c(=O)n1 [Decitabine] + CS(=O)(=O)N1CCN(Cc2cc3nc(-c4cccc5[nH]ncc45)nc(N4CCOCC4)c3s2)CC1 [Pictilisib] (partner 1 µM)
The essentials: as §1

Regarding UMC-11, the relative viability in assay [1] (first compound 0.04 µM) was 0.328; in assay [1] (first compound 0.1265 µM), 0.293; in assay [1] (first compound 0.4 µM), 0.322; in assay [1] (first compound 1.265 µM) it was 0.321; in assay [1] (first compound 4 µM), 0.359; in assay [2] (first compound 0.04 µM), 1.14. Further, the relative viability was 1.04 in assay [2] (first compound 0.4 µM); 0.903 in assay [2] (first compound 4 µM); 0.5 in assay [3] (first compound 0.04 µM); 0.426 in assay [3] (first compound 0.4 µM); 0.539 in assay [3] (first compound 4 µM); 0.737 in assay [4] (first compound 0.04 µM). Also, the relative viability in assay [4] (first compound 0.1265 µM) was 0.794; in assay [4] (first compound 0.4 µM), 0.315; in assay [4] (first compound 1.265 µM), 0.335; in assay [4] (first compound 4 µM), 0.271.
